Results from patent US20080234262A1 (Wyeth, priority 2007, published 2008).

Columns and labels:
PI3K = PI3K (Homo sapiens, UniProt P42336); assay: Fluorescence polarization assay for PI3K; format: biochemical; details: PI3Kα; read-out: PI3Kα IC50;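 further: PI3K kinase reaction on PIP2 with ATP, 30-60 min, product sensed by GST-GRP with red probe in fluorescence polarization (mP), controls without enzyme and at zero time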
prostate line LNCap = assay: In vitro cell culture growth assay (MTS), LNCap; format: cell-based, human; details: LNCap cells, three days after drug treatment;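 further: viable cell density read by absorbance at 490 nm, growth expressed as percent of vehicle-treated cells on the same plate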
breast line MDA468 = assay: In vitro cell culture growth assay (MTS), MDA468; format: cell-based, human; details: MDA468 cells, three days after drug treatment
How it was run: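 Steps: plate cells; add inhibitors the next day; incubate 3 days; add MTS dye, which viable cells convert metabolically; measure absorbance at 490 nm; calculate percent of control growth relative to vehicle-treated cells in the same plate.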

Chain of PI3K (P42336 whole entry): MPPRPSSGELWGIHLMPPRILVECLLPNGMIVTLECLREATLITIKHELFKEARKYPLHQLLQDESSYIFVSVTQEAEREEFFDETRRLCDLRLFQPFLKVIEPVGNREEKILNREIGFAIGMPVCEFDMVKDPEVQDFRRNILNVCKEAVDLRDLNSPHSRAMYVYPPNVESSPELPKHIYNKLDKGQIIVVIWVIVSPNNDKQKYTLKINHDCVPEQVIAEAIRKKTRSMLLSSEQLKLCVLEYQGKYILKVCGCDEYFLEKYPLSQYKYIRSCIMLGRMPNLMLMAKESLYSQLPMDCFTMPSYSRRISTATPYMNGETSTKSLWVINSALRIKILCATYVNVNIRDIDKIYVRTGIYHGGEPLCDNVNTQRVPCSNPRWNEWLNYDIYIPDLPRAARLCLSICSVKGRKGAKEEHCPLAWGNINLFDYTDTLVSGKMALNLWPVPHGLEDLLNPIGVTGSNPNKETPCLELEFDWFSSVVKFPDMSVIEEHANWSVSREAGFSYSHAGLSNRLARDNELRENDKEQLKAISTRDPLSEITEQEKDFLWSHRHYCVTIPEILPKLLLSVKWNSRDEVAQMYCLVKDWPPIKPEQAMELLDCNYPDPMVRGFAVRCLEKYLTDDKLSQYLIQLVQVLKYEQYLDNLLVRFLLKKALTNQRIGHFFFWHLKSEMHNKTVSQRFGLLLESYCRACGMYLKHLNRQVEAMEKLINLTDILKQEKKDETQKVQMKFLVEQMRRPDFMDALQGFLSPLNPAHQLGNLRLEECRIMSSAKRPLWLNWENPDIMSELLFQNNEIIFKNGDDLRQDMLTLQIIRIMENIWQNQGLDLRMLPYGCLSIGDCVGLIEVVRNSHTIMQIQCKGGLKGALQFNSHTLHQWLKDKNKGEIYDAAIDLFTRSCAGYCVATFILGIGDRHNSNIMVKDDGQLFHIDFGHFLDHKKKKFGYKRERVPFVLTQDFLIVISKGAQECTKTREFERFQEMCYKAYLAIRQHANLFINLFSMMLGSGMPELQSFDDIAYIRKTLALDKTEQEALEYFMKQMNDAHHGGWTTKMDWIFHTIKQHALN
Chain of PI3K (P27986 whole entry partner): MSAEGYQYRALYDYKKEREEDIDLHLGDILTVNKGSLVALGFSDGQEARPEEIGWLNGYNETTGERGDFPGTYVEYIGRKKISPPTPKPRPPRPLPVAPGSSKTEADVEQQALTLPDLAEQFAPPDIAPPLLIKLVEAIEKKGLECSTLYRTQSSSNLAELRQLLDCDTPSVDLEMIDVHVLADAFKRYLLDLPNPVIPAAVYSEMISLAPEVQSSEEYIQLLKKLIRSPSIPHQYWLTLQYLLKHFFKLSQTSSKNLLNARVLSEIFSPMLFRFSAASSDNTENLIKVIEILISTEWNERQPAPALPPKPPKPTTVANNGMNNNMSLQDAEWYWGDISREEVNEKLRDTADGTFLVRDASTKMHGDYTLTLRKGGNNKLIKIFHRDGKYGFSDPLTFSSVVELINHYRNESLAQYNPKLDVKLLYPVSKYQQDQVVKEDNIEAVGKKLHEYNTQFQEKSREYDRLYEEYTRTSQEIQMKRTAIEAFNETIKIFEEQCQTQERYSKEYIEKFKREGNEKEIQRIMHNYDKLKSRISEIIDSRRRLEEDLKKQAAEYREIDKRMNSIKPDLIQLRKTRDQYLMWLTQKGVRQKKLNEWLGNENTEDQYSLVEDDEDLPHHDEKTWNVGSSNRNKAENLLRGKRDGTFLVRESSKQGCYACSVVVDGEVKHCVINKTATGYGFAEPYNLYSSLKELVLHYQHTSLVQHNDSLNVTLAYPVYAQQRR

Row | IC50 (PI3K) [nM] | IC50 (prostate line LNCap; Homo sapiens, LNCaP, 72 h) [nM] | IC50 (prostate line LNCap) [nM] | SMILES | IC50 (breast line MDA468; Homo sapiens, 72 h) [nM] | IC50 (breast line MDA468) [nM]
1 | 108 | 27 |  | CNC(=O)Nc1ccc(-c2nc(N3CCOCC3)c3cnn(C4CCN(C(=O)c5ccc(F)cc5)CC4)c3n2)cc1 [Compound 607, 1-(4-{1-[1-(4-fluorobenzoyl)piperidin-4-yl]-4-morpholin-4-yl-1H-pyrazolo[3,4-d]pyrimidin-6-yl}phenyl)-3-methylurea] | 90 | 
2 | 42 | 52 |  | CNC(=O)Nc1ccc(-c2nc(N3CCOCC3)c3cnn(C4CCN(C(=O)c5ccc(Cl)cc5)CC4)c3n2)cc1 [Compound 608, 1-(4-{1-[1-(4-chlorobenzoyl)piperidin-4-yl]-4-morpholin-4-yl-1H-pyrazolo[3,4-d]pyrimidin-6-yl}phenyl)-3-methylurea] | 400 | 
3 | 54 | 45 |  | CNC(=O)Nc1ccc(-c2nc(N3CCOCC3)c3cnn(C4CCN(C(=O)c5ccc(OC)cc5)CC4)c3n2)cc1 [Compound 609, 1-(4-{1-[1-(4-methoxybenzoyl)piperidin-4-yl]-4-morpholin-4-yl-1H-pyrazolo[3,4-d]pyrimidin-6-yl}phenyl)-3-methylurea] | 350 | 
4 | 75 | 35 |  | CNC(=O)Nc1ccc(-c2nc(N3CCOCC3)c3cnn(C4CCN(C(=O)c5cccc(OC)c5)CC4)c3n2)cc1 [Compound 610, 1-(4-{1-[1-(3-methoxybenzoyl)piperidin-4-yl]-4-morpholin-4-yl-1H-pyrazolo[3,4-d]pyrimidin-6-yl}phenyl)-3-methylurea] | 340 | 
5 | 82 | < 27 |  | CNC(=O)Nc1ccc(-c2nc(N3CCOCC3)c3cnn(C4CCN(C(=O)c5ccccc5OC)CC4)c3n2)cc1 [Compound 611, 1-(4-{1-[1-(2-methoxybenzoyl)piperidin-4-yl]-4-morpholin-4-yl-1H-pyrazolo[3,4-d]pyrimidin-6-yl}phenyl)-3-methylurea] | 330 | 
6 | 72 | < 27 |  | CNC(=O)Nc1ccc(-c2nc(N3CCOCC3)c3cnn(C4CCN(C(=O)c5cccc(C)c5)CC4)c3n2)cc1 [Compound 612, 1-methyl-3-(4-{1-[1-(3-methylbenzoyl)piperidin-4-yl]-4-morpholin-4-yl-1H-pyrazolo[3,4-d]pyrimidin-6-yl}phenyl)urea] | 27 | 
7 | 42 | < 27 |  | CNC(=O)Nc1ccc(-c2nc(N3CCOCC3)c3cnn(C4CCN(C(=O)c5ccc(C)cc5)CC4)c3n2)cc1 [Compound 613, 1-methyl-3-(4-{1-[1-(4-methylbenzoyl)piperidin-4-yl]-4-morpholin-4-yl-1H-pyrazolo[3,4-d]pyrimidin-6-yl}phenyl)urea] | 85 | 
8 | 89 | 150 |  | CNC(=O)Nc1ccc(-c2nc(N3CCOCC3)c3cnn(C4CCN(C(=O)c5ccc(C#N)cc5)CC4)c3n2)cc1 [Compound 614, 1-(4-{1-[1-(4-cyanobenzoyl)piperidin-4-yl]-4-morpholin-4-yl-1H-pyrazolo[3,4-d]pyrimidin-6-yl}phenyl)-3-methylurea] | 220 | 

Continued, compound first:

Row | SMILES | IC50 (PI3K) [nM] | IC50 (prostate line LNCap; Homo sapiens, LNCaP, 72 h) [nM] | IC50 (prostate line LNCap) [nM] | IC50 (breast line MDA468; Homo sapiens, 72 h) [nM] | IC50 (breast line MDA468) [nM]
9 | O=C(Nc1cccnc1)Nc1ccc(-c2nc(N3CCOCC3)c3cnn(C4CCN(Cc5cccnc5)CC4)c3n2)cc1F [Compound 618, 1-(2-fluoro-4-{4-morpholin-4-yl-1-[1-(pyridin-3-ylmethyl)piperidin-4-yl]-1H-pyrazolo[3,4-d]pyrimidin-6-yl}phenyl)-3-pyridin-3-ylurea] | 54 | 40 |  | 150 | 
10 | O=C(NCCF)Nc1ccc(-c2nc(N3CCOCC3)c3cnn(C4CCN(Cc5cccnc5)CC4)c3n2)cc1F [Compound 619, 1-(2-fluoroethyl)-3-(2-fluoro-4-{4-morpholin-4-yl-1-[1-(pyridin-3-ylmethyl)piperidin-4-yl]-1H-pyrazolo[3,4-d]pyrimidin-6-yl}phenyl)urea] | 619 | 140 |  | 1300 | 
11 | O=C(Nc1ccc(-c2nc(N3CCOCC3)c3cnn(C4CCN(Cc5cccnc5)CC4)c3n2)cc1)Nc1ccsc1 [Compound 620, 1-(4-{4-morpholin-4-yl-1-[1-(pyridin-3-ylmethyl)piperidin-4-yl]-1H-pyrazolo[3,4-d]pyrimidin-6-yl}phenyl)-3-(3-thienyl)urea] | 10 | 34 |  | 130 | 
12 | O=C(Nc1ccccc1)Nc1ccc(-c2nc(N3CCOCC3)c3cnn(C4CCN(C(=O)c5ccccc5)CC4)c3n2)cc1 [Compound 623, 1-{4-[1-(1-benzoylpiperidin-4-yl)-4-morpholin-4-yl-1H-pyrazolo[3,4-d]pyrimidin-6-yl]phenyl}-3-phenylurea] | 16 | < 27 |  | 50 | 
13 | O=C(Nc1ccc(-c2nc(N3CCOCC3)c3cnn(C4CCN(C(=O)c5ccccc5)CC4)c3n2)cc1)Nc1cccnc1 [Compound 624, 1-{4-[1-(1-benzoylpiperidin-4-yl)-4-morpholin-4-yl-1H-pyrazolo[3,4-d]pyrimidin-6-yl]phenyl}-3-pyridin-3-ylurea] | 34 |  | < 27 | < 27 | 
14 | O=C(NCCF)Nc1ccc(-c2nc(N3CCOCC3)c3cnn(C4CCN(C(=O)c5ccccc5)CC4)c3n2)cc1 [Compound 625, 1-{4-[1-(1-benzoylpiperidin-4-yl)-4-morpholin-4-yl-1H-pyrazolo[3,4-d]pyrimidin-6-yl]phenyl}-3-(2-fluoroethyl)urea] | 454 |  | < 27 | 27 | 
15 | CCNC(=O)Nc1ccc(-c2nc(N3CCOCC3)c3cnn(C4CCN(C(=O)c5ccccc5)CC4)c3n2)cc1 [Compound 626, 1-{4-[1-(1-benzoylpiperidin-4-yl)-4-morpholin-4-yl-1H-pyrazolo[3,4-d]pyrimidin-6-yl]phenyl}-3-ethylurea] | 355 |  | < 27 | 38 | 
16 | NC(=O)Nc1ccc(-c2nc(N3CCOCC3)c3cnn(C4CCN(C(=O)c5ccccc5)CC4)c3n2)cc1 [Compound 627, 1-{4-[1-(1-benzoylpiperidin-4-yl)-4-morpholin-4-yl-1H-pyrazolo[3,4-d]pyrimidin-6-yl]phenyl}urea] | 84 |  | 170 |  | 160
17 | O=C(Nc1ccncc1)Nc1ccc(-c2nc(N3CCOCC3)c3cnn(C4CCN(C(=O)c5ccccc5)CC4)c3n2)cc1 [Compound 629, 1-{4-[1-(1-benzoylpiperidin-4-yl)-4-morpholin-4-yl-1H-pyrazolo[3,4-d]pyrimidin-6-yl]phenyl}-3-pyridin-4-ylurea] | 19 |  | 42 |  | 70
18 | CNC(=O)Nc1ccc(-c2nc(N3CCOCC3)c3cnn(C4CCN(Cc5ccc(F)nc5)CC4)c3n2)cc1 [Compound 632, 1-[4-(1-{1-[(6-fluoropyridin-3-yl)methyl]piperidin-4-yl}-4-morpholin-4-yl-1H-pyrazolo[3,4-d]pyrimidin-6-yl)phenyl]-3-methylurea] | 108 |  | 35 |  | 120
19 | CNC(=O)Nc1ccc(-c2nc(N3CCOCC3)c3cnn(C4CCN(Cc5ccc(Cl)nc5)CC4)c3n2)cc1 [Compound 633, 1-[4-(1-{1-[(6-chloropyridin-3-yl)methyl]piperidin-4-yl}-4-morpholin-4-yl-1H-pyrazolo[3,4-d]pyrimidin-6-yl)phenyl]-3-methylurea] | 47 |  | < 27 |  | 48
